Read-outs that look alike come from different tables or passages of the source.
How the values were obtained:
red rice (Oryza sativa) [1] = test: Pre-emergent evaluation on dryland rice, red rice control; format: in vivo; settings: 200 g ai/ha; for Percent red rice control: PRE, direct-seeded dryland rice
From the text: (§1) Rice (Oryza sativa) was planted in 6″ by 10″ fiber flats filled with sterile top soil. Five rows were made in each flat and the three rice varieties (′Cybonee, ‘Jupiter’, and ‘Taggart’) were planted in the center 3 rows and a row of red rice (Oryza sativa) was planted on either end of the flat. The flats were watered after planting. After application flats were placed in the greenhouse and lightly watered. […] The flats were moved to a greenhouse and watered and fertilized routinely. Studies were conducted using randomized complete block design with four replications. In both studies, visual percent red rice control and rice injury were recorded at 14, 21, and 28 days after treatment (DAT), using a scale of 0 (no control/injury) to 100 (complete plant death).

[2] = test system: Rice (Oryza sativa) 'Taggart'; settings: for Percent rice injury Taggart: in vivo
Procedure: (§2) Rice (Oryza sativa) crop varieties (‘Cybonee’, ‘Jupiter’, and ‘Taggart’) and red rice (Oryza sativa) were planted in 6 inch plastic pots containing sterile top soil. Eight to ten seeds of each species were seeded at 12 o'clock, 3 o'clock, 6 o'clock or 9 o'clock around the pot. The pots were watered after planting. […] The test solutions were applied using a compressed air track spray chamber at 30 gallons per acre using a Teejet 8001E nozzle at 40 PSI, three replicates per test rate. After treatment, the pots were watered lightly and transferred to trays in a greenhouse. After the plants were two inches in height the trays were flooded with water and maintained as such for 14 days. The trays were emptied of water and the pots were maintained by regular watering for 4 more days. At 14, 21 and 28 days after treatment (DAT) the plants were evaluated versus untreated control pots containing the same rice and weeds using a scale of 0% (no control) to 100% (complete plant death).

[3] = test system: Rice (Oryza sativa) 'Cybonee'; settings: for Percent rice injury Cybonet: in vivo
Procedure: as §2

[4] = test system: Rice (Oryza sativa) 'Jupiter'; settings: for Percent rice injury Jupiter: in vivo
Procedure: as §2

red rice (Oryza sativa) [5] = test: Pre-emergent evaluation on flooded rice, red rice control; format: in vivo; settings: 200 g ai/ha; for Percent red rice control: PRE, direct-seeded flooded rice
Procedure: as §2

[6] = test system: Rice (Oryza sativa) 'Taggart'; settings: for Percent rice injury Taggart: Oryza sativa (rice), in vivo
From the text: as §1

[7] = test system: Rice (Oryza sativa) 'Cybonee'; settings: for Percent rice injury Cybonet: Cybonee, Oryza sativa (rice), in vivo
From the text: as §1

[8] = test system: Rice (Oryza sativa) 'Jupiter'; settings: for Percent rice injury Jupiter: Oryza sativa (rice), in vivo
From the text: as §1

CC1(C)CON(Cc2ccccc2Cl)C1=O [Clomazone, clomazone]
red rice control (red rice (Oryza sativa) [1]; PRE dryland rice): failed to control
Percent red rice control (red rice (Oryza sativa) [1]; 14 DAT): 38 C %
Percent red rice control (red rice (Oryza sativa) [1]; 21 DAT): 50 D %
Percent red rice control (red rice (Oryza sativa) [1]; 28 DAT): 46 C %
rice injury, 'Taggart' ([2]; PRE flooded rice, 200 g ai/ha): injured
Percent rice injury Taggart ([2]; Taggart, Oryza sativa (rice), 21 days after treatment): 76 A %
Percent rice injury Taggart ([2]; Taggart, Oryza sativa (rice), 28 days after treatment): 71 A %
Percent rice injury Taggart [2]: 58 A %
Percent rice injury Cybonet ([3]; Cybonee, Oryza sativa (rice), 21 days after treatment): 58 A %
Percent rice injury Cybonet ([3]; Cybonee, Oryza sativa (rice), 28 days after treatment): 49 AB %
rice injury, 'Cybonee' ([3]; PRE flooded rice, 200 g ai/ha): injured
Percent rice injury Cybonet [3]: 41 A %
Percent rice injury Jupiter ([4]; Jupiter, Oryza sativa (rice), 21 days after treatment): 86 A %
Percent rice injury Jupiter ([4]; Jupiter, Oryza sativa (rice), 28 days after treatment): 79 A %
rice injury, 'Jupiter' ([4]; PRE flooded rice, 200 g ai/ha): injured
Percent rice injury Jupiter [4]: 60 A %
red rice control (red rice (Oryza sativa) [5]; PRE flooded rice): failed to control
Percent red rice control (red rice (Oryza sativa) [5]; 14 DAT): 56 C %
Percent red rice control (red rice (Oryza sativa) [5]; 21 DAT): 59 B %
Percent red rice control (red rice (Oryza sativa) [5]; 28 DAT): 52 B %
rice injury, 'Taggart' ([6]; PRE dryland rice, 200 g ai/ha): injured
Percent rice injury Taggart ([6]; 14 days after treatment): 40 A %
Percent rice injury Taggart ([6]; 21 days after treatment): 60 A %
Percent rice injury Taggart ([6]; 28 days after treatment): 66 A %
Percent rice injury Cybonet ([7]; 14 days after treatment): 35 A %
Percent rice injury Cybonet ([7]; 21 days after treatment): 39 A %
Percent rice injury Cybonet ([7]; 28 days after treatment): 43 A %
rice injury, 'Cybonee' ([7]; PRE dryland rice, 200 g ai/ha): injured
Percent rice injury Jupiter ([8]; 14 days after treatment): 31 A %
Percent rice injury Jupiter ([8]; 21 days after treatment): 41 A %
Percent rice injury Jupiter ([8]; 28 days after treatment): 44 A %
rice injury, 'Jupiter' ([8]; PRE dryland rice, 200 g ai/ha): injured
